The values that follow come from ChEMBL document CHEMBL3132756, “Synthesis, structureactivity relationships and stereochemical investigations of new tricyclic pyridazinone derivatives as potential STAT3 inhibitors” (Medchemcomm, 2013).

Active and inactive are the calls of the source. The rule behind the calls is not given here.

For one test, the target named is Signal transducer and activator of transcription 3 (Homo sapiens) (UniProt P40763). Nature of the test: Binding affinity to STAT3 SH2 domain (unknown origin) pre-incubated 15 mins before (FITC)-GpYLPQTV probe and measured after 90 mins by Alpha screen assay.
Signal transducer and activator of transcription 3 (Homo sapiens), sequence (P40763 whole entry, the tested form may be a part): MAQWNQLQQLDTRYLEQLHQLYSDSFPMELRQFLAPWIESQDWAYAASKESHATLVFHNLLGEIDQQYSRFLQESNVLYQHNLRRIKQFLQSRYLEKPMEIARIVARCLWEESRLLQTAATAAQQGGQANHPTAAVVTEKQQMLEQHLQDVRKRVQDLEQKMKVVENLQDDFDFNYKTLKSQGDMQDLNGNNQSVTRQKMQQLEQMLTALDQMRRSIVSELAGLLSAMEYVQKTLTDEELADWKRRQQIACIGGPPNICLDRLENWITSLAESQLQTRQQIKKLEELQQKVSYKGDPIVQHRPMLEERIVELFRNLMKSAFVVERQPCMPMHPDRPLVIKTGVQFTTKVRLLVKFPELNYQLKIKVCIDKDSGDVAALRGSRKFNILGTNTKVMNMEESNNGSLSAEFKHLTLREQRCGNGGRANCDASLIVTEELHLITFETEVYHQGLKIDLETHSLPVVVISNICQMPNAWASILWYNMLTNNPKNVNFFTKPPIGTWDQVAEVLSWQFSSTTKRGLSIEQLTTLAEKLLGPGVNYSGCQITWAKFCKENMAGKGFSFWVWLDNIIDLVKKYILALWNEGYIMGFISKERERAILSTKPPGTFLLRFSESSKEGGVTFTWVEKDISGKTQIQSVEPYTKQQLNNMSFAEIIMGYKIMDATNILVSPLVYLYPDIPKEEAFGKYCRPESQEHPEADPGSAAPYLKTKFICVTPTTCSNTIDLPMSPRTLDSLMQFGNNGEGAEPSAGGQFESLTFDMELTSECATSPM
Settings: not given
With `CCOC(=O)CCCN1N=C2c3ccccc3CCC2CC1=O` (racemic), the outcome was inactive.

A further test shares this target. Nature of the test: Inhibition of STAT3 (unknown origin) expressed in human HCT116 cells at 2 uM by dual luciferase assay. Format: cell-based. To be noted: HCT-116.
Usually inhibition stands for the relative decrease from the control value, in per cent. For `CCOC(=O)CN1N=C2c3ccccc3CCC2CC1=O` (stereo unspecified), the inhibition turned out to be 3%.

As for `O=C1CC2CCc3ccccc3C2=NN1CCCc1nn[nH]n1` (stereo unspecified), the inhibition is -9%.

As to `CCOC(=O)CCCN1N=C2c3cc(OC)cc(OC)c3CCC2CC1=O` (stereo unspecified), the inhibition amounted to 23%.

For `CCOC(=O)CCCN1N=C2c3ccccc3CC2CC1=O` (stereo unspecified), the inhibition was 28%.

For `CCOC(=O)CCCCCCN1N=C2c3ccccc3CCC2CC1=O` (stereo unspecified), the inhibition worked out at 22%.

For `O=C(O)CCN1N=C2c3ccccc3CCC2CC1=O` (stereo unspecified), the inhibition was -2%.

On to `O=C(O)CCCN1N=C2c3ccccc3CCC2CC1=O` (stereo unspecified), for which the inhibition was 8%.

With `CCOC(=O)CCN1N=C2c3ccccc3CCC2CC1=O` (stereo unspecified), the inhibition was found to be 30%.

For the molecule `CCOC(=O)CCCCN1N=C2c3ccccc3CCC2CC1=O` (stereo unspecified), the inhibition amounted to 21%.

As for `CCNC(=O)CCCN1N=C2c3ccccc3CCC2CC1=O` (stereo unspecified), the inhibition stood at 16%.

In the case of `CCNCCCCN1N=C2c3ccccc3CCC2CC1=O` (stereo unspecified), the inhibition stood at 3%.

Consider `CCCCN1N=C2c3ccccc3CCC2CC1=O` (stereo unspecified), for which the inhibition was -9%.

`O=C1CC2CCc3ccccc3C2=NN1` (stereo unspecified): the inhibition is -6%.

For the molecule `CCOC(=O)CCCN1N=C2c3ccccc3CCC2CC1=O` (racemic), the inhibition came out at 46%.

As for `CCOC(=O)CCCN1N=C2c3ccc(Cl)cc3CCC2CC1=O` (stereo unspecified), the inhibition was found to be 9%.

As to `C[C@H]1COC2=C1C(=O)C(=O)c1c2ccc2c1CCCC2(C)C`, the inhibition was 25%.

In the case of `CCOC(=O)CCCn1nc2c(cc1=O)CCc1ccccc1-2`, the inhibition was 1%.

Consider `CCCCCN1N=C2c3ccccc3CCC2CC1=O` (stereo unspecified), for which the inhibition came to 22%.

With `CCOC(=O)CCCCCN1N=C2c3ccccc3CCC2CC1=O` (stereo unspecified), the inhibition is 25%.

The next test shares this target. Nature of the test: Inhibition of STAT3 (unknown origin) expressed in human HCT116 cells at 10 uM by dual luciferase assay relative to (+) enantiomer. Format: cell-based. To be noted: HCT-116.
Regarding `CCOC(=O)CCCN1N=C2c3ccccc3CC[C@H]2CC1=O`, the fold change (FC) was 2.
